Reference: patent US11384055B2 (BIOMARIN PHARMACEUTICAL INC., priority 2017, dated 2022)

Target: T1, Human GO (Homo sapiens, UniProt Q9UJM8)
T1 construct: purchased Novus Biologicals NBP1-72412
T1 sequence (Q9UJM8 1-370): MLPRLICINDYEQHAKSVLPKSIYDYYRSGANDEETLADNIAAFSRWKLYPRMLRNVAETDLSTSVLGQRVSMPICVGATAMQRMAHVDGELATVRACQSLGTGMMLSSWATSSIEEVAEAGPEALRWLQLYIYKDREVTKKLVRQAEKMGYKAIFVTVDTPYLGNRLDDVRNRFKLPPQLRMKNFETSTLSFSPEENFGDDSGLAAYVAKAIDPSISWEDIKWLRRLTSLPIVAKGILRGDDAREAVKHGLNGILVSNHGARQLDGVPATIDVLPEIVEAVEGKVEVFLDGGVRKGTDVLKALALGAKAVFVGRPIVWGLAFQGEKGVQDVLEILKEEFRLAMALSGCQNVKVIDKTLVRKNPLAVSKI
Experiment: GO enzymatic assay (coupled fluorescence/HRP assay, glycolate substrate)
Type: biochemical
Conditions: Table 1; read-out: Range (range of IC50 values calculated from the enzymatic assays)
Procedure: Assay 1: GO Enzymatic Assay
GO was incubated with its substrate, glycolate, in 50 mM potassium phosphate buffer, pH 7. […] The enzyme was optimized and the kinetics was determined.
Compound inhibition was determined by adding various concentrations of inhibitors in the GO enzyme assay. The IC50 value for each measured compound was generated from sigmoidal dose-response (variable slope) curves with GraphPad Prism software (GraphPad Software, Inc., San Diego, Calif.) using the percent inhibition of GO activity relative to DMSO control.

Structure (SMILES) | IC50 [µM]
O=C(O)c1[nH]nnc1Sc1ccc(-c2ccc(Cl)cc2)cc1 [Compound 5, 4-((4′-chloro-[1,1′-biphenyl]-4-yl)thio)-1H-1,2,3-triazole-5-carboxylic acid] | < 0.1
CN1CCN(c2cccc(Sc3[nH]nnc3C(=O)O)c2)CC1 [Compound 6, 5-((3-(4-methylpiperazin-1-yl)phenyl)thio)-1H-1,2,3-triazole-4-carboxylic acid 2,2,2-trifluoroacetate] | > 10
O=C(O)c1[nH]nnc1Sc1ccc(N2CCCCC2)cc1 [Compound 7, 4-((4-(piperidin-1-yl)phenyl)thio)-1H-1,2,3-triazole-5-carboxylic acid 2,2,2-trifluoroacetate] | 0.1 to 1
O=C(OC1CCC1)c1[nH]nnc1Sc1nc(-c2ccc(Cl)c(Cl)c2)cs1 [Compound 9, cyclobutyl 4-((4-(3,4-dichlorophenyl)thiazol-2-yl)thio)-1H-1,2,3-triazole-5-carboxylate] | > 10
CN1CCN(c2ccc(Sc3nn[nH]c3C(=O)O)cc2)CC1 [Compound 10, 4-((4-(4-methylpiperazin-1-yl)phenyl)thio)-1H-1,2,3-triazole-5-carboxylic acid] | 1 to 10
CC(C)OC(=O)c1[nH]nnc1Sc1nc(-c2ccc(Cl)c(Cl)c2)cs1 [Compound 11, isopropyl 4-((4-(3,4-dichlorophenyl)thiazol-2-yl)thio)-1H-1,2,3-triazole-5-carboxylate] | > 10
COc1ccc(-c2ccc(Sc3nn[nH]c3C(=O)O)cc2)cc1 [Compound 14, 4-((4′-methoxy-[1,1′-biphenyl]-4-yl)thio)-1H-1,2,3-triazole-5-carboxylic acid] | < 0.1
COc1ccc(-c2csc(Sc3nn[nH]c3C(=O)O)n2)cc1Cl [Compound 15, 4-((4-(3-chloro-4-methoxyphenyl)thiazol-2-yl)thio)-1H-1,2,3-triazole-5-carboxylic acid] | < 0.1
O=C(O)c1[nH]nnc1Sc1ccc(-c2ccc(OC(F)(F)F)cc2)cc1 [Compound 16, 4-((4′-(trifluoromethoxy)-[1,1′-biphenyl]-4-yl)thio)-1H-1,2,3-triazole-5-carboxylic acid] | < 0.1
O=C(O)c1[nH]nnc1Sc1ccc(-c2ccc(Cl)c(Cl)c2)cc1 [Compound 21, 4-((3′,4′-dichloro-[1,1′-biphenyl]-4-yl)thio)-1H-1,2,3-triazole-5-carboxylic acid] | < 0.1
O=C(O)c1[nH]nnc1Sc1ccc(-c2ccc(Cl)cc2Cl)cc1 [Compound 22, 4-((2′,4′-dichloro-[1,1′-biphenyl]-4-yl)thio)-1H-1,2,3-triazole-5-carboxylic acid] | < 0.1
COc1cc(-c2nc(Sc3nn[nH]c3C(=O)O)cs2)ccc1Cl [Compound 23, 4-((2-(4-chloro-3-methoxyphenyl)thiazol-4-yl)thio)-1H-1,2,3-triazole-5-carboxylic acid] | < 0.1
CC(C)Oc1cc(-c2nc(Sc3nn[nH]c3C(=O)O)cs2)ccc1Cl [Compound 24, 4-((2-(4-chloro-3-isopropoxyphenyl)thiazol-4-yl)thio)-1H-1,2,3-triazole-5-carboxylic acid] | < 0.1
COc1ccc(-c2nc(Sc3nn[nH]c3C(=O)O)cs2)cc1Cl [Compound 25-2, 4-((2-(3-chloro-4-methoxyphenyl)thiazol-4-yl)thio)-1H-1,2,3-triazole-5-carboxylic acid] | < 0.1
O=C(O)c1[nH]nnc1Sc1csc(-c2ccc(Cl)cc2Cl)n1 [Compound 26, 4-((2-(2,4-dichlorophenyl)thiazol-4-yl)thio)-1H-1,2,3-triazole-5-carboxylic acid] | < 0.1
O=C(O)c1[nH]nnc1Sc1ccc(-c2ccc(Cl)c(OC(F)(F)F)c2)cc1 [Compound 30, 4-((4′-chloro-3′-(trifluoromethoxy)-[1,1′-biphenyl]-4-yl)thio)-1H-1,2,3-triazole-5-carboxylic acid] | < 0.1

Continued, values first:

IC50 [µM] | Structure (SMILES)
< 0.1 | O=C(O)c1[nH]nnc1Sc1nc(-c2ccc(Cl)c(Cl)c2)cs1 [Compound 2, 4-((4-(3,4-dichlorophenyl)thiazol-2-yl)thio)-1H-1,2,3-triazole-5-carboxylic acid]
< 0.1 | O=C(O)c1[nH]nnc1Sc1ncc(-c2ccc(Cl)c(Cl)c2)s1 [Compound 3, 4-((5-(3,4-dichlorophenyl)thiazol-2-yl)thio)-1H-1,2,3-triazole-5-carboxylic acid]
< 0.1 | O=C(O)c1[nH]nnc1Sc1csc(-c2ccc(Cl)c(Cl)c2)n1 [Compound 8, 4-((2-(3,4-dichlorophenyl)thiazol-4-yl)thio)-1H-1,2,3-triazole-5-carboxylic acid]
0.1 to 1 | O=C(O)c1[nH]nnc1Sc1ccc(-c2ccc(Br)cc2)cn1 [Compound 12, 4-((5-(4-bromophenyl)pyridin-2-yl)thio)-1H-1,2,3-triazole-5-carboxylic acid 2,2,2-trifluoroacetate]
0.1 to 1 | O=C(O)c1[nH]nnc1Sc1nnc(-c2ccc(Cl)c(Cl)c2)[nH]1 [Compound 13, 4-((5-(3,4-dichlorophenyl)-4H-1,2,4-triazol-3-yl)thio)-1H-1,2,3-triazole-5-carboxylic acid]
> 10 | COC(=O)c1[nH]nnc1Sc1nc(-c2ccc(Cl)c(Cl)c2)cs1 [Compound 17, methyl 4-((4-(3,4-dichlorophenyl)thiazol-2-yl)thio)-1H-1,2,3-triazole-5-carboxylate]
< 0.1 | O=C(O)c1[nH]nnc1Sc1nc(-c2ccc(OC3CC3)c(Cl)c2)cs1 [Compound 18, 4-((4-(3-chloro-4-cyclopropoxyphenyl)thiazol-2-yl)thio)-1H-1,2,3-triazole-5-carboxylic acid]
> 10 | O=C(OC1CC1)c1[nH]nnc1Sc1nc(-c2ccc(Cl)c(Cl)c2)cs1 [Compound 19, cyclopropyl 4-((4-(3,4-dichlorophenyl)thiazol-2-yl)thio)-1H-1,2,3-triazole-5-carboxylate]
< 0.1 | O=C(O)c1[nH]nnc1Sc1cccc(-c2ccc(Cl)c(Cl)c2)n1 [Compound 20, 4-((6-(3,4-dichlorophenyl)pyridin-2-yl)thio)-1H-1,2,3-triazole-5-carboxylic acid]
> 10 | COc1ccc(Cn2nnc(C(=O)O)c2Sc2csc(-c3ccc(OC)c(Cl)c3)n2)cc1 [Compound 25-1, 5-((2-(3-chloro-4-methoxyphenyl)thiazol-4-yl)thio)-1-(4-methoxybenzyl)-1H-1,2,3-triazole-4-carboxylic acid]
< 0.1 | CC(C)Oc1ccc(-c2nc(Sc3nn[nH]c3C(=O)O)cs2)cc1Cl [Compound 27, 4-((2-(3-chloro-4-isopropoxyphenyl)thiazol-4-yl)thio)-1H-1,2,3-triazole-5-carboxylic acid]
1 to 10 | Cn1c(Sc2nn[nH]c2C(=O)O)nnc1-c1ccc(Cl)c(Cl)c1 [Compound 28, 4-((5-(3,4-dichlorophenyl)-4-methyl-4H-1,2,4-triazol-3-yl)thio)-1H-1,2,3-triazole-5-carboxylic acid 2,2,2-trifluoroacetate]
0.1 to 1 | CCOc1ccc2sc(Sc3nn[nH]c3C(=O)O)nc2c1 [Compound 29, 4-((5-ethoxybenzo[d]thiazol-2-yl)thio)-1H-1,2,3-triazole-5-carboxylic acid]
< 0.1 | O=C(O)c1[nH]nnc1Sc1ccc(-c2cccc(OC(F)(F)F)c2Cl)cc1 [Compound 31, 4-((2′-chloro-3′-(trifluoromethoxy)-[1,1′-biphenyl]-4-yl)thio)-1H-1,2,3-triazole-5-carboxylic acid]

Same assay, conditions: Table 4; read-out: Range (range of IC50 values calculated from the enzymatic assays)

IC50 [µM] | Structure (SMILES)
< 0.1 | CCCC(O)(CC)Cn1ccc(-c2ccc([C@H]3CC[C@H](Oc4nn[nH]c4C(=O)O)CC3)cc2)n1 (relative stereo) [Example 458, 4-(((trans)-4-(4-(1-(2-ethyl-2-hydroxypentyl)-1H-pyrazol-3-yl)phenyl)cyclohexyl)oxy)-1H-1,2,3-triazole-5-carboxylic acid]
< 0.1 | CCCC(O)(CC)Cn1nccc1-c1ccc([C@H]2CC[C@H](Oc3nn[nH]c3C(=O)O)CC2)cc1 (relative stereo) [Example 470, 4-(((trans)-4-(4-(1-(2-ethyl-2-hydroxypentyl)-1H-pyrazol-5-yl)phenyl)cyclohexyl)oxy)-1H-1,2,3-triazole-5-carboxylic acid]
< 0.1 | CCC(Cc1cc(-c2ccc([C@H]3CC[C@H](Oc4nn[nH]c4C(=O)O)CC3)cc2)[nH]n1)OC (relative stereo) [Example 475, 4-(((trans)-4-(4-(3-(2-methoxybutyl)-1H-pyrazol-5-yl)phenyl)cyclohexyl)oxy)-1H-1,2,3-triazole-5-carboxylic acid]
< 0.1 | O=C(O)c1[nH]nnc1O[C@H]1CC[C@H](c2ccc(-c3ccnn3[C@H]3CCCC[C@@H]3O)cc2)CC1 (relative stereo) [Example 476, 4-(((trans)-4-(4-(1-((1S,2S)-2-hydroxycyclohexyl)-1H-pyrazol-5-yl)phenyl)cyclohexyl)oxy)-1H-1,2,3-triazole-5-carboxylic acid]
< 0.1 | O=C(O)c1[nH]nnc1O[C@H]1CC[C@H](c2ccc(OC[C@H]3CCC[C@H](CO)C3)cc2)CC1 (relative stereo) [Example 483, 4-(((trans)-4-(4-(((trans)-3-(hydroxymethyl)cyclohexyl)methoxy)phenyl)cyclohexyl)oxy)-1H-1,2,3-triazole-5-carboxylic acid]
